Measurements taken from patent US20150250864A1, “ANTI-CANCER VACCINES” (Board of Regents, The University of Texas System, priority 2012, published 2015).

Tests used:
T cells in PBMCs = assay: IFN-γ release by ELISA from PBMC stimulated with peptides or protein; format: cell-based, human; conditions: stimulated PBMC, FIG. 21A
Description: FIG. 17. T cell stimulation by HERV-K peptides. Peptides (p73-76 and p18-135) or HERV-K SU fusion proteins were used to stimulate PBMC and evaluated in vitro for their ability to stimulate T cells in PBMCs from healthy subjects (ND1007083; left) and/or cancer patients (BC 243; right), based on interferon-γ(IFN-γ) release by ELISA. KLH peptide and GST protein were used as controls. Other negative controls included media only, DMSO, and PBS.
FIG. 18. T cell stimulation by HERV-K peptides. Peptides (p73-76: left; and p18-135: middle) or HERV-K SU fusion proteins (right) were used to stimulate PBMC and evaluated in vitro for their ability to stimulate T cells in PBMCs from healthy subjects and/or cancer patients (BC 243; middle), based on interferon-γ (IFN-γ) release by ELISA. OD values of interferon-γ (IFN-γ) release were compared between normal donors (ND447549, ND1001366, and ND1007083) and cancer patients (OC222, OC 210, OC212, and BC243). OC is ovarian cancer and BC is breast cancer
FIGS. 21A-C. T Cell Stimulation. 9 mer Peptides (HERVK-3, HERVK-4, HERVK-11, and HERVK-18; see Table 1), p73-76 and p18-135 (Table 1 178 and 179), or HERV-K SU fusion proteins were used to stimulate PBMC and evaluated in vitro for their ability to stimulate T cells in PBMCs from healthy subjects and/or cancer patients, based on IFN-γ and Granzyme B release by ELISA. (FIG. 21A) OD values of IFN-γ release were compared in a normal donor (ND291812). (FIG. 21B) OD values of IFN-γ release were compared between a normal donor (ND291817) and an ovarian cancer patient (OC153). (FIG. 21C) OD values of Granzyme B release were compared between a normal donor (ND291817) and an ovarian cancer patient (OC153). Each dot represents an individual clone. Negative controls measured release of effector molecules from cancer cells after treatment with supernatants obtained from PBMCs without stimulation with HERV-K peptides or protein; positive controls were stimulated with PMA/ONO.
Cancer patients were enrolled to evaluate HERV-K as a tumor associated antigen target. Patients provided written informed consent as part of an approved protocol (LAB04-0083) at MD Anderson Cancer Center prior to commencing the studies. Normal healthy donor control blood samples were obtained from Gulf Coast Regional Blood Center, Houston Tex. 40 mL of peripheral blood was obtained from each patient, and peripheral blood mononuclear cells (PBMCs) were isolated by density gradient centrifugation using Histopaque-1077 (Sigma-Aldrich; USA). HLA-A*02 expression in PBMCs obtained from cancer patients and healthy subjects was determined by flow cytometry with PE Mouse anti-human HLA-A2 mAb BB7.2 (BD Pharmingen; San Diego, Calif., USA). Mouse IgG2b was used as an isotype control. PBMCs (5×10^5 cells/well) from either healthy subjects or cancer patients were incubated with Peptide #18-135 ([…]; SEQ ID NO: 178), Peptide #73-76 ([…]; SEQ ID NO: 179) or KLH as control peptide) or proteins (HERV-K env SU protein or GST protein as control) at concentrations of 40 μg/mL in 96-well U-bottom microplates (BD; Franklin Lakes, N.J., USA) in 100 μL of T-cell medium (TCM), consisting of RPMI 1640 (Mediatech; Manassas, Va., USA), 10% human AB serum (Valley Biomedical, Winchester, USA), […] 2-mercaptoethanol, 100 IU/mL interleukin-2 (IL-2), and 0.1 mM MEM nonessential amino acid solution (Invitrogen; Grand Island, N.Y., USA). Half of the TCM was removed and replaced with fresh TCM containing peptides (20 μg/mL) on day 7. After 14 days of culture, the supernatants from cell culture media (PBMC pulsed with peptides or proteins) were harvested and tested for their ability to produce IFN-gamma or IL-2, and granzyme B release was also determined by enzyme-linked immunosorbent assay (ELISA) assay. In order to detect the secreted cytokine in this assay, high-binding plates were coated with 5 μg/ml anti-IFN-γ (Mabtech, Stockholm, Sweden) diluted in PBS buffer at 4° C. overnight. […]

IVS cells = assay: IFN-γ ELISPOT with IVS cells (DC pulsed once with HERV-K protein) against MAPs, 9-mer pools or single peptides; format: cell-based, human; conditions: donor 449731, IVS cells, FIG. 15C
Description: FIGS. 15A-C. ELISPOT was employed to determine the production of IFN-γ in twelve 15-mer small pools. (FIG. 15A) Numbers of spots detected in multiple pools are shown for a breast cancer patient diagnosed with IDC (Acc 30) or a patient diagnosed with teratoma (Acc 32). (FIG. 15B) Numbers of spots detected in multiple pools are shown for a patient diagnosed with left breast minute foci of sugg papillary lesion (967092) or IDC (Acc 31). SP 1-12 represents small peptide pools #1-12. Pool 0 contains no peptides (as control). (FIG. 15C) T cells obtained from PBMC stimulated once with HERV-K-specific pulsed homologous B cells were reactive with individual MAPs, pools of 9-mer peptides, or single 9-mer peptides. NP: no peptide control.
IVS were obtained from two donor pairs stimulated with DC pulsed once with HERV-K protein. After 7 days (1-week stimulation), IVS cells were used for ELISPOT with 15-mer peptides (FIGS. 15A-B) or MAPs including MAP73, MAP75-76, MAP82-93, MAP 92-93, and MAP95-96 or 9 mer peptide pools (#1 to 5, #5 to 10, #1 to 10, #12 to 17, #18 to 22) or single peptides (#3, #18, and #4.11; FIG. 15C). Candidate epitopes (#4 and #11) were further identified using IVS generated from DC obtained from cancer patients stimulated with HERV-K antigen in this study.

Sequence	IFN-γ release (OD values) (T cells in PBMCs)	HERV-K specific T cell epitope (IFN-γ ELISPOT) (IVS cells)
YMLVVGNIV [HERVK-3]	Higher IFN-γ release	HERV-K specific T cell epitopes
IINLILILV [HERVK-18]	Higher IFN-γ release	HERV-K specific T cell epitopes
